From ChEMBL document CHEMBL1123223, “New effective gonadotropin releasing hormone antagonists with minimal potency for histamine release in vitro” (J Med Chem, 1986)
pKd: −log10 of the molar value. In brackets after ≈: the same amount, converted by molar mass.

What was measured:
Rattus norvegicus [1] = organism: Rattus norvegicus; test: Compound was tested in vitro for its ability to inhibit histamine release from rat mast cells.; format: functional; settings: read-out: ED50 (the source's name)
Rattus norvegicus [2] = organism: Rattus norvegicus; test: GnRH antagonistic dose of compound for 2 rats ovulation out of total 10 using anti-ovulatory assay in experiment 1; format: functional
Rattus norvegicus [3] = organism: Rattus norvegicus; test: Dissociation constant was determined in rat pituitary cells.; format: cell-based; settings: pituitary gland cell
Rattus norvegicus [4] = organism: Rattus norvegicus; test: GnRH antagonistic dose of compound for 0 rats ovulation out of total 6 using anti-ovulatory assay in experiment 2; format: functional
[5] = target: T1, Gonadotropin-releasing hormone receptor (Rattus norvegicus) (UniProt P30969); test: Inhibition of GnRH-mediated LH secretion by cultured pituitary cells; format: functional, cell-based; settings: Pituitary gland cell
T1 sequence (whole entry): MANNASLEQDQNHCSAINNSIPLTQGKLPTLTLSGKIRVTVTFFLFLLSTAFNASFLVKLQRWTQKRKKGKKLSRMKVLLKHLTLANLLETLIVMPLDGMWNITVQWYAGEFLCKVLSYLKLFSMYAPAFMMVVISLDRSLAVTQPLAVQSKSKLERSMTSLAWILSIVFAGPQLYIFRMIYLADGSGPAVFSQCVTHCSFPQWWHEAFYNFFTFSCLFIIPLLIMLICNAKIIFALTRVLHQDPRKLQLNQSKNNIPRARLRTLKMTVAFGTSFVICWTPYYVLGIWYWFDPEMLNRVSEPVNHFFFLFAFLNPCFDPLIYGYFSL

## CC(=O)N[C@H](Cc1ccc2ccccc2c1)C(=O)N[C@H](Cc1ccc(Cl)cc1)C(=O)N[C@H](Cc1cccnc1)C(=O)N[C@@H](CO)C(=O)N[C@@H](CCCN=C(N)N)C(=O)N[C@H](Cc1c[nH]c2ccccc12)C(=O)N[C@@H](CC(C)C)C(=O)N[C@@H](CCCN=C(N)N)C(=O)N1CCC[C@H]1C(=O)N[C@H](C)C(=O)O
Rattus norvegicus [1]
  EC50: 2.1 µg/mL (≈ 1.44 µM)
Rattus norvegicus [2]
  ED100: 0.5 µg/kg
Rattus norvegicus [3]
  pKd: 9.02
Rattus norvegicus [4]
  ED100: 1 µg/kg
[5]
  Relative potency: 0.44
